Results from patent US20070203242A1, “Method for treating gastric reflux” (priority 2006, published 2007).

Assays:
[1] = test system: aspirin induced gastric lesions; settings: dose 62.5 mg/kg; cited from earlier work
[2] = test system: indomethacin induced gastric lesions; settings: dose 15.6 mg/kg; cited from earlier work
[3] = test system: patients with gastric reflux / heartburn; experiment: Patient reports of relief of gastric reflux / heartburn after oral L-arginine compositions; assay type: in vivo, human; settings: for relief of gastric reflux due to stress: one patient
Excerpt: A patient having ulcerations in the upper small intestine who routinely took omeprazole or lansoprazole complained of heartburn on laying down.

small bowel ulcers = settings: rats; yeast RNA together with L-arginine; cited from earlier work

SMILES | prevention of aspirin induced gastric lesions [1] | prevention of indomethacin induced gastric lesions [2] | L-arginine required for complete control of the gastric reflux ([3]; daily, severely afflicted patient) | time to complete cessation of all symptoms ([3]; one patient with reflux due to stress, L-arginine 1 gram dose) | relief of gastric reflux due to stress ([3]; L-arginine 1 gram dose) | decrease in ulcer number (small bowel ulcers)
NC(=O)CC[C@H](N)C(=O)O [Glutamine, L-glutamine] | completely ineffective | ineffective | – | – | – | –
N=C(N)NCCC[C@H](N)C(=O)O [L-arginine] | – | – | 1 to 4 g | complete cessation of all symptoms within one minute | immediate relief | 34%
O=C([O-])[O-].[Ca+2] [calcium carbonate antacids, calcium carbonate, reference compound] | – | – | – | – | no relief | –
